One assay addresses TRKA kinase (Homo sapiens (Human), UniProt P04629). Kind of assay: Assay of small molecular compounds for inhibiting the activity of TRKA kinase (LANCE TR-FRET). It is filed as biochemical. In a few lines:
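LANCE TR-FRET with ULight-TK peptide; compounds pre-incubated 5 min with TRKA (2× solution 2 nM), then substrate/ATP added (4× mix: 400 nM peptide, 40 μM ATP). Reaction 60 min at room temperature in dark, 1% DMSO final; stopped, detection developed 60 min, signal read.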
(In general: Time-resolved FRET reads energy transfer from a long-lived donor to a nearby acceptor.)

For another assay, the target named is c-MET kinase (Homo sapiens (Human), UniProt P08581). The assay can be described thus: Assay of small molecular compounds for inhibiting the activity of c-MET kinase (LANCE TR-FRET). The note with it: read-out: CMET IC50. It is filed as biochemical. In a few lines: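 LANCE TR-FRET assay with c-MET at 1 nM final after a 5 min room-temperature preincubation with compound (11-point, 3-fold series, 2500–0.042 nM final, 4% DMSO). ULight-JAK-1 (Tyr1023) peptide (100 nM final) and ATP (10 μM final) reacted 60 min in the dark. Inhibition was taken relative to controls, then IC50 fitted.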
c-MET kinase, sequence (P08581 25-1390): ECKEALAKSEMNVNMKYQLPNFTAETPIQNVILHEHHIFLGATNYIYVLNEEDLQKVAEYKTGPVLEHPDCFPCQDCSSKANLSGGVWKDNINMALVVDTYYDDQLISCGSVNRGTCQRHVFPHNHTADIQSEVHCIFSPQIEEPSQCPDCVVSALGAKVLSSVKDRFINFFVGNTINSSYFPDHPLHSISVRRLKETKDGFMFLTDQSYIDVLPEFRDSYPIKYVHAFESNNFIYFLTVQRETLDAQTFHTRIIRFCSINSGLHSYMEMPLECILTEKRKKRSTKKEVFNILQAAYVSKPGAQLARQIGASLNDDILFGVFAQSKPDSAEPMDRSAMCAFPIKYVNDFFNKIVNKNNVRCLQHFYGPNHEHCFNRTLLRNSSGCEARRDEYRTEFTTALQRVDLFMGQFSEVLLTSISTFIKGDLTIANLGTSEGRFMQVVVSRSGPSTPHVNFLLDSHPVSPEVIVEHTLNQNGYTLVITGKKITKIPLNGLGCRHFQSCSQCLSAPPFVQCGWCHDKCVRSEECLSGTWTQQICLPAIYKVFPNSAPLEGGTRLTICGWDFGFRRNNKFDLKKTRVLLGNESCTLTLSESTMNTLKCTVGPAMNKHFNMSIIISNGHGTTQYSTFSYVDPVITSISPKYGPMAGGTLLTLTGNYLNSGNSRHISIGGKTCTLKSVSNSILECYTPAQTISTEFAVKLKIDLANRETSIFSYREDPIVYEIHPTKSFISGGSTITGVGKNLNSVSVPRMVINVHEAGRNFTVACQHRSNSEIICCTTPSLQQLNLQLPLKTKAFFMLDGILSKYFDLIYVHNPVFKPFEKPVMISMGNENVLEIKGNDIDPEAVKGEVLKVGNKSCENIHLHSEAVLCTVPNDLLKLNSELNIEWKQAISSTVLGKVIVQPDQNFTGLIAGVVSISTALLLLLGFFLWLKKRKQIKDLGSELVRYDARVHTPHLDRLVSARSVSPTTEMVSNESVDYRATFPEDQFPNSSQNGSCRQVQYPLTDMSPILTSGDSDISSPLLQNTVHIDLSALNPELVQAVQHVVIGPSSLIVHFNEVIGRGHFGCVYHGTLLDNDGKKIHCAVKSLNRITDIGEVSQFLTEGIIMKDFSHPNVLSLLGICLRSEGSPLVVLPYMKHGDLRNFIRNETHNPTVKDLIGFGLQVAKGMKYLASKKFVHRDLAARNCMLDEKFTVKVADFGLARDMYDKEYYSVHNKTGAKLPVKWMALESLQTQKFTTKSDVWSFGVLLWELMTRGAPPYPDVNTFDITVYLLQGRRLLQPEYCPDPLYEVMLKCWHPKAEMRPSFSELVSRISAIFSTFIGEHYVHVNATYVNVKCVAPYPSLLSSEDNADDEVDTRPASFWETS

For a further assay, the system named is Ba/F3-AXL cells. Kind of assay: Assay for inhibiting the proliferation of Ba/F3-AXL cells (CCK-8). It is filed as cell-based. The note with it: 72 hours of incubation, medium with 100 ng/mL hGas6, CCK-8. On the procedure: The values were then imported into Graphpad Prism 5 software for curve fitting, and IC50 was calculated.
In another assay the test system is EBC1 cells. The assay can be described thus: Assay for inhibiting the proliferation of EBC1 cells (CCK-8). The class given is cell-based. To be noted: Homo sapiens, EBC-1. In outline:
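Cells seeded in 96-well plates overnight, then exposed 72 h to 9 three-fold dilutions of compound (0.25% DMSO final). Viability by CCK-8 (1-2 h at 37° C., OD 450 nm), survival normalized to untreated and cell-free blanks; IC50 by curve fitting.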

TRKA kinase, sequence (P04629 33-796): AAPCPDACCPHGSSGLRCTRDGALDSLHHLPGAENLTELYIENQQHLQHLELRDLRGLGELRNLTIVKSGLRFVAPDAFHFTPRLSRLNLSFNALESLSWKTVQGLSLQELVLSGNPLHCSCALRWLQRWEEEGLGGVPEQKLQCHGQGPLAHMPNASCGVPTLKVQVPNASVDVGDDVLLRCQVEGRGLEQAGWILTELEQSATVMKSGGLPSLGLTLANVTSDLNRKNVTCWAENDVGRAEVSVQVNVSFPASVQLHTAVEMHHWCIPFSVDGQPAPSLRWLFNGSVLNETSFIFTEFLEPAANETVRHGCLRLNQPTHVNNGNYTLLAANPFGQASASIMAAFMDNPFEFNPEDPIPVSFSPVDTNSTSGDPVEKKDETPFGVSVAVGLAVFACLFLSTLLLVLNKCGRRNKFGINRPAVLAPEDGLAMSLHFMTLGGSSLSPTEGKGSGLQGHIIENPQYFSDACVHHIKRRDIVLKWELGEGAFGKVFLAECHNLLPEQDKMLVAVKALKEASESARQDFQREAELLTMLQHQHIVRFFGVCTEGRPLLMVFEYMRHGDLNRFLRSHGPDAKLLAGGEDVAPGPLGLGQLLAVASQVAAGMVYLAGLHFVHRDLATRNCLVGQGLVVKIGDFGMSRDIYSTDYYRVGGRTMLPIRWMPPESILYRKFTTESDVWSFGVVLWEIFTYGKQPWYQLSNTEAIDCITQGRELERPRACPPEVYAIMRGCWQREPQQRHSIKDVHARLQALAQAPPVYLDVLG

Regarding `CCOc1ccn(-c2ccc(F)cc2)c(=O)c1C(=O)Nc1ccc(Oc2ccnc3cc(OCCCC#N)c4c(c23)OCCO4)c(F)c1` [Example 57, N-(4-((5-(3-cyanopropoxy)-2,3-dihydro-[1,4]dioxino[2,3-f]quinolin-10-yl)oxy)-3-fluorophenyl)-4-ethoxy-1-(4-fluorophenyl)-2-oxo-1,2-dihydropyridine-3-carboxamide], the IC50 on TRKA kinase is below 50 nM; at c-MET kinase, at most 50 nM; in the assay with Ba/F3-AXL cells, below 50 nM; in the assay with EBC1 cells, at most 50 nM.

Turning to `CCOc1ccn(-c2ccc(F)cc2)c(=O)c1C(=O)Nc1ccc(Oc2ccnc3cc(OCC#N)c4c(c23)OCCO4)c(F)c1` [Example 56, N-(4-((5-(cyanomethoxy)-2,3-dihydro-[1,4]dioxino[2,3-f]quinolin-10-yl)oxy)-3-fluorophenyl)-4-ethoxy-1-(4-fluorophenyl)-2-oxo-1,2-dihydropyridine-3-carboxamide], the half-maximal inhibitory concentration (IC50) at TRKA kinase is below 50 nM; at c-MET kinase, at most 50 nM; in the assay on Ba/F3-AXL cells it was below 50 nM; in the assay on EBC1 cells it was at most 50 nM.

Take `CCOc1ccn(-c2ccc(F)cc2)c(=O)c1C(=O)Nc1ccc(Oc2ccnc3cc(OCCCN4CCN(C(C)=O)CC4)c4c(c23)OCCO4)c(F)c1` [Example 50, N-(4-((5-(3-(4-acetyl-piperazin-1-yl)propoxy)-2,3-dihydro-[1,4]dioxino[2,3-f]quinolin-10-yl)oxy)-3-fluorophenyl)-4-ethoxy-1-(4-fluorophenyl)-2-oxo-1,2-dihydropyridine-3-carboxamide]: the half-inhibitory concentration (IC50) is below 50 nM at TRKA kinase, at most 50 nM at c-MET kinase, below 50 nM in the assay on Ba/F3-AXL cells and at most 50 nM in the assay with EBC1 cells.

`CCOc1cc2nccc(Oc3ccc(NC(=O)c4c(OCC)ccn(-c5ccc(F)cc5)c4=O)cc3F)c2c2c1OCCO2` [Example 62, N-(4-((5-ethoxy-2,3-dihydro-[1,4]dioxino[2,3-f]quinolin-10-yl)oxy)-3-fluorophenyl)-4-ethoxy-1-(4-fluorophenyl)-2-oxo-1,2-dihydropyridine-3-carboxamide]: the half-maximal inhibitory concentration (IC50) is below 50 nM at TRKA kinase, at most 50 nM on c-MET kinase, below 50 nM in the assay on Ba/F3-AXL cells and at most 50 nM in the assay on EBC1 cells.

In the case of `CCOc1ccn(-c2ccc(F)cc2)c(=O)c1C(=O)Nc1ccc(Oc2ccnc3cc(OCCCN(C)C4CCC4)c4c(c23)OCCO4)c(F)c1` [Example 71, N-(4-((5-(3-(cyclobutyl(methyl)amino)propoxy)-2,3-dihydro-[1,4]dioxino[2,3-f]quinolin-10-yl)oxy)-3-fluorophenyl)-4-ethoxy-1-(4-fluorophenyl)-2-oxo-1,2-dihydropyridine-3-carboxamide], the 50% inhibitory concentration (IC50) was below 50 nM at TRKA kinase, at most 50 nM at c-MET kinase, below 50 nM in the assay with Ba/F3-AXL cells and at most 50 nM in the assay on EBC1 cells.

Consider `CCOc1ccn(-c2ccc(F)cc2)c(=O)c1C(=O)Nc1ccc(Oc2ccnc3cc(OCCCN4CCC(C)(O)CC4)c4c(c23)OCCO4)c(F)c1` [Example 69, N-(4-((5-(3-(4-hydroxy-4-methylpiperidin-1-yl)propoxy)-2,3-dihydro-[1,4]dioxino[2,3-f]quinolin-10-yl)oxy)-3-fluorophenyl)-4-ethoxy-1-(4-fluorophenyl)-2-oxo-1,2-dihydropyridine-3-carboxamide], for which the IC50 against TRKA kinase was below 50 nM; on c-MET kinase it was at most 50 nM; in the assay with Ba/F3-AXL cells, below 50 nM; with EBC1 cells, at most 50 nM.

On to `CN1CCN(CCCOc2cc3nccc(Oc4ccc(NC(=O)c5cn(C)c(=O)n(-c6ccc(F)cc6)c5=O)cc4F)c3c3c2OCCO3)CC1` [Example 74, N-(3-fluoro-4-((5-(3-(4-methylpiperazin-1-yl)propoxy)-2,3-dihydro-[1,4]dioxino[2,3-f]quinolin-10-yl)oxy)phenyl)-3-(4-fluorophenyl)-1-methyl-2,4-dioxo-1,2,3,4-tetrahydropyrimidine-5-carboxamide], for which the 50% inhibitory concentration (IC50) against TRKA kinase is below 50 nM; on c-MET kinase, at most 50 nM; in the assay with Ba/F3-AXL cells, below 50 nM; in the assay with EBC1 cells it was at most 50 nM.

For `CCOc1ccn(-c2ccc(F)cc2)c(=O)c1C(=O)Nc1ccc(Oc2ccnc3cc(OC4COC4)c4c(c23)OCCO4)c(F)c1` [Example 64, N-(4-((5-((oxetan-3-yl)oxy)-2,3-dihydro-[1,4]dioxino[2,3-f]quinolin-10-yl)oxy)-3-fluorophenyl)-4-ethoxy-1-(4-fluorophenyl)-2-oxo-1,2-dihydropyridine-3-carboxamide], the half-inhibitory concentration (IC50) is below 50 nM at TRKA kinase, at most 50 nM on c-MET kinase, below 50 nM in the assay with Ba/F3-AXL cells and 50 to 200 nM with EBC1 cells.

With `CCOc1ccn(-c2ccc(F)cc2)c(=O)c1C(=O)Nc1ccc(Oc2ccnc3cc(OCCCOC)c4c(c23)OCCO4)c(F)c1` [Example 55, N-(4-((5-(3-methoxypropoxy)-2,3-dihydro-[1,4]dioxino[2,3-f]quinolin-10-yl)oxy)-3-fluorophenyl)-4-ethoxy-1-(4-fluorophenyl)-2-oxo-1,2-dihydropyridine-3-carboxamide], the IC50 at TRKA kinase is below 50 nM; at c-MET kinase, at most 50 nM; in the assay on Ba/F3-AXL cells it was below 50 nM; in the assay with EBC1 cells it was at most 50 nM.

Regarding `COc1cc2ncnc(Oc3ccc(NC(=O)c4cccn(-c5ccc(F)cc5)c4=O)cc3F)c2c2c1OCCO2` [Example 1, N-(3-fluoro-4-((5-methoxy-2,3-dihydro-[1,4]dioxino[2,3-f]quinazolin-10-yl)oxy)phenyl)-1-(4-fluorophenyl)-2-oxo-1,2-dihydropyridine-3-carboxamide], the IC50 against TRKA kinase was below 50 nM; at c-MET kinase it was at most 50 nM; in the assay with Ba/F3-AXL cells, below 50 nM; in the assay with EBC1 cells, 50 to 200 nM.

In the case of `CCOc1ccn(-c2ccc(F)cc2)c(=O)c1C(=O)Nc1ccc(Oc2ccnc3cc(OCCCO)c4c(c23)OCCO4)c(F)c1` [Example 54, N-(4-((5-(3-hydroxypropoxy)-2,3-dihydro-[1,4]dioxino[2,3-f]quinolin-10-yl)oxy)-3-fluorophenyl)-4-ethoxy-1-(4-fluorophenyl)-2-oxo-1,2-dihydropyridine-3-carboxamide], the 50% inhibitory concentration (IC50) was below 50 nM against TRKA kinase, at most 50 nM on c-MET kinase, below 50 nM in the assay on Ba/F3-AXL cells and at most 50 nM in the assay with EBC1 cells.

A word on the IC50: it is the concentration at which inhibition is half-maximal.

Values taken from patent publication US12202835B2, “Substituted aromatic ring-linked dioxinoquinazolines and dioxinoquinolines as kinase inhibitors” (BEIJING SCITECH-MQ PHARMACEUTICALS LIMITED, priority 2018, dated 2025).
